# Experimental data published in patent US20210023089A1, “Compositions Useful for Treating Herpes Simplex Keratitis, and Methods Using Same” (priority 2013, published 2021).
# What was measured:
# HSV-1 [1] = test: Ex vivo HSV-1 infection of explanted human corneas, qPCR of viral genome; format: cell-based, HSV-1 (KOS strain); conditions: 48 hpi; for viral genome replication in corneal epithelium (qPCR): 1×10^4 PFU/cornea
# Description: (§1) Human corneas were obtained from the Lions Eye Bank of Delaware Valley. Rabbit corneas were excised from intact fresh eyeballs of young (8-12 weeks) albino rabbits (Pel-Freez Biologicals, Rogers, Ark.). Protocol (Alekseev et al., 2012, J Vis Exp 69:e3631) for ex vivo corneal culture, infection, and treatment was followed closely. Briefly, corneoscleral buttons were excised and rinsed in PBS containing 200 U/mL penicillin and 200 μg/mL streptomycin. The endothelial concavity was filled with culture medium containing 1% low melting temperature agarose. The corneas were cultured epithelial side up in MEM medium supplemented with nonessential amino acids (1×), 2 mM […], 200 U/mL penicillin, and 200 μg/mL streptomycin. The next day, they were infected with 1×10^4 plaque forming units (PFU)/cornea of strain KOS HSV-1 for 1 hour, rinsed, and overlaid with fresh medium. Drug treatments were administered at the same concentrations as for cultured cells. For KU-55933 bioavailability assessment, corneas were treated with bleomycin (200 μg/mL) for 1 hour. The epithelial cell layer was collected by scraping to isolate DNA or protein. For immunohistochemistry studies, corneas were flash frozen in optimal cutting temperature (OCT) compound, sectioned, and immunostained using standard protocols. Treatment toxicity was assessed by briefly staining the cornea with fluorescein (1% wt/vol in PBS) and imaging the epithelial defects with 464-nm wavelength blue light (LDP LLC, Carlstadt, N.J.).
# (§2) Viral genome replication and transcription were measured by quantitative PCR (qPCR). Total DNA and RNA from infected cells were isolated using the DNeasy Blood & Tissue Kit and the RNeasy Mini Kit, respectively (QIAGEN, Hilden, Germany). RNA was converted to cDNA using qScript (Quanta BioSciences, Gaithersburg, Md.). Real-time qPCR was performed with SYBR Green (Bio-Rad, Hercules, Calif.). Target primers for UL30 (DNA polymerase catalytic subunit) and reference primers for glyceraldehyde 3-phosphate dehydrogenase (GAPDH) were used to measure genome replication. Transcription of the three gene families was measured with primers for RL2 (ICPO), UL30 (DNA polymerase catalytic subunit), and UL44 (gC), with reference primers for the 18S ribosomal RNA (rRNA).
# Human corneas were obtained from the Lions Eye Bank of Delaware Valley. Rabbit corneas were excised from intact fresh eyeballs of young (8-12 weeks) albino rabbits (Pel-Freez Biologicals, Rogers, Ark.). […]
# (§3) Total DNA from infected cells and corneas was isolated using the DNeasy Blood & Tissue Kit (QIAGEN, Hilden, Germany). Real time quantitative PCR was performed with SYBR Green (Bio-Rad, Hercules, Calif.). […]
# HSV-1 [2] = test: Ex vivo HSV-1 infection of explanted rabbit corneas, qPCR of viral genome; format: cell-based, HSV-1 (KOS strain); conditions: for viral genome replication in corneal epithelium (qPCR): 1×10^4 PFU/cornea, 10 μM
# Description: as §1, §2
# Human corneas were obtained from the Lions Eye Bank of Delaware Valley. Rabbit corneas were excised from intact fresh eyeballs of young (8-12 weeks) albino rabbits (Pel-Freez Biologicals, Rogers, Ark.). The protocol (Alekseev et al., 2012, J. Vis. Exp. e3631) for ex vivo corneal culture and infection was followed, and treatment was administered immediately after infection. Briefly, corneoscleral buttons were excised and rinsed in PBS containing 200 U/ml penicillin and 200 μg/ml streptomycin. The endothelial concavity was filled with culture medium containing 1% low melting temperature agarose. The corneas were cultured epithelial side up in MEM medium supplemented with non-essential amino acids (1×), 2 mM […], 200 U/ml penicillin, and 200 μg/ml streptomycin. The next day, they were infected with 1×10^4 PFU/cornea of strain KOS HSV-1 for 1 hour, rinsed, and overlaid with fresh medium. Drug treatments were administered at the same concentrations as for cultured cells. […]
# as §3
# HSV-1 [3] = test: HSV-1 replication (relative genome level) in normal and cancer cell lines; format: cell-based; conditions: KU-55933 10 μM
# Description: All cells were cultured at 37° C. and 5% CO2, and supplemented with 100 U/ml penicillin and 100 μg/ml streptomycin. hTCEpi human corneal epithelial cells were cultured in KGM-2 (Lonza, Basel, Switzerland). HCE human corneal epithelial cells were cultured in DMEM/F-12 supplemented with 10% FBS. EPC2 human esophageal epithelial cells were cultured in KSFM (Carlsbad, Calif.). OKF6 human oral epithelial cells were cultured in KSFM. E5 cells, which are CV-1 cells stably expressing HSV-1 ICP4 protein, were cultured in DMEM supplemented with 10% FBS. HEK293 human embryonic kidney epithelial cells, HeLa human cervical adenocarcinoma cells, U2OS human osteosarcoma cells, H1299 human lung carcinoma cells, and SH-SY5Y human neuroblastoma cells were all obtained from American Type Culture Collection and cultured in DMEM supplemented with 10% FBS.
# Total DNA was isolated from infected cells using the DNeasy Blood & Tissue Kit (QIAGEN, Hilden, Germany). Real time quantitative PCR was performed with SYBR Green (Bio-Rad, Hercules, Calif.). Target primers for UL30 (DNA polymerase catalytic subunit) and reference primers for GAPDH were used to measure genome replication. Primer sequences were provided in Alekseev et al., 2014, Invest. Ophthalm. Vis. Sci. 55:706-715). Real time PCR data were processed using the ΔΔC(t) method. […]
SMILES,"difference in viral genome levels versus positive controls treated with PAA (HSV-1 [1]; human corneas, 10 μM, PAA 400 μg/ml)","viral genome replication in corneal epithelium (qPCR) (HSV-1 [1]; human corneas, 10 μM)","HSV-1 inhibition in rabbit compared with human corneas (HSV-1 [2]; Chk2 inhibitor II 10 μM, 48 hpi)","HSV-1 growth following the removal of inhibitor (HSV-1 [2]; rabbit corneas, 10 μM for 48 hours, then inhibitor-free medium)","time to which the effect of inhibition was maintained (HSV-1 [2]; rabbit corneas, 10 μM for 48 hours, then inhibitor-free medium for 48 hours, latest time point tested) [hpi]","viral genome replication in corneal epithelium (qPCR) (HSV-1 [2]; rabbit corneas, 48 hpi)","effect on viral genome replication, human compared with rabbit corneas (HSV-1 [1]; KU-55933 10 μM)","HSV-1 replication in transformed or cancer cell lines (HSV-1 [3]; HeLa, U2OS, H1299, SH-SY5Y)","HSV-1 replication in normal cell types (HSV-1 [3]; hTCEpi, HCE, OKF6, EPC2)"
"NC(=O)c1ccc2[nH]c(-c3ccc(Oc4ccc(Cl)cc4)cc3)nc2c1 [Chk2 inhibitor II, 2-(4-(4-chlorophenoxy)phenyl)-1H-benzimidazole-5-carboxamide]",no statistical significance,did not support productive infection,slightly less potent,resume normal growth,≥ 96,did not support productive infection,,,
"O=c1cc(-c2cccc3c2Sc2ccccc2S3)oc(N2CCOCC2)c1 [KU-55933, 2-(morpholin-4-yl)-6-(thianthren-1-yl)-pyran-4-one]",,greatly reduced,,,,greatly reduced,more pronounced in human corneas,little effect,potently suppressed
